pIC50: −log10 of the molar value.
Legend:
C. xeroses = assay type: cell-based, Corynebacterium xerosis
Description: (§1) The following bacterial strains were utilized: Escherichia coli UB1005 (wt) and its antibiotic supersusceptible derivative DC2 (Clark, 1984); Excherichia coli SC9251 and its polymixin B rasistant mutant pmrA SC9252 (Peterson, et al., 1987) Pseudomonas aeruginosa H187 (wt) (Angus, et al., 1987) and its antibiotic-sensitive derivative H188 (Zimmerman, W, Antimicrob. Agents Chemother. 18: 94-100, 1980); methicillin sensitive Staphylococcus aureus K147 (Kreiswirth, et al., 1983); Staphylococcus aureus SAP0017, a methicillin resistant clinical isolate from Dr. A. Chow (University of British Columia); Bacillus subtilis, an environmental wt lab strain. Enterococcus faecalis are ATCC 29212 cells and Staphylococcus epidermidis was a clinical isolate from Dr. D. Speert (University of British Columbia). Antifungal activity was tested using a clinical lab isolate of Candida albicans. Salmonella typhinurium C57 and C610 (Fields, P.I., et al., Science 243: 1059-1062 (1989) Corynebacterium xerosis was an environmental isolate (University of British Columbia).
(§2) It is now apparent that agar-based assays severely underestimate antifungal activity as well as activity against gram negative microorganisms (Kondejewski, et al., 1996). Consequently, in the studies reported herein, a liquid-broth method was used to measure the antibiotic properties of the peptides. […] Briefly, cells were grown overnight at 37° C. in LB and diluted in the same medium. Serial dilutions of antibiotics were added to the microtitre plates in a volume of 100 μL followed by 10 μL of bacteria to give a final inoculum of 5×10^5 CFU/mL. Plates were incubated at 37° C. overnight and MICs determined as the lowest antibiotic concentration that inhibited growth. […]

S. epidermidis = assay type: cell-based, Staphylococcus epidermidis
Description: as §1, §2

B. subtilis = assay type: cell-based, Bacillus subtilis
Description: as §1, §2

E. faecalis = assay type: cell-based, Enterococcus faecalis
Description: as §1, §2

P. aeruginosa H187 = assay type: cell-based, Pseudomonas aeruginosa; conditions: H187
Description: as §1
(§3) It is now apparent that agar-based assays severely underestimate antifungal activity as well as activity against gram negative microorganisms (Kondejewski, et al., 1996). Consequently, in the studies reported herein, a liquid-broth method was used to measure the antibiotic properties of the peptides. […] Briefly, cells were grown overnight at 37° C. in LB and diluted in the same medium. Serial dilutions of antibiotics were added to the microtitre plates in a volume of 100 μL followed by 10 μL of bacteria to give a final inoculum of 5×10^5 CFU/mL. Plates were incubated at 37° C. overnight and MICs determined as the lowest antibiotic concentration that inhibited growth.
(§4) The results from antimicrobial and hemolytic assays are combined to provide a “Therapeutic Index” (TI) for each peptide with respect to individual microorganisms. As reported herein, the TI is calculated as the hemolytic activity divided by the antimicrobial activity. The TI thus is a measure of specificity of the particular peptide for microbial membranes as opposed to human blood cell membranes. In the present studies, antimicrobial activities are reported as minimum inhibitory concentrations (MIC)—the lowest concentration of peptide (μg/ml) found to inhibit growth of the particular microbe. Hemolytic activity is reported as the concentration of peptide that effected complete lysis of blood cells after four hours. Thus, in the context of the present invention high TI values indicate microbial specificity and relative lack of toxicity.

S. aureus SAP0017 = assay type: cell-based, Staphylococcus aureus
Description: as §1, §3, §4

S. aureus K147 = assay type: cell-based, Staphylococcus aureus
Description: as §1, §3, §4

[1] = Displacement of dansyl-polymyxin from LPS; assay type: binding, P. aeruginosa; conditions: read-out: LPS binding affinity: peptide concentration to displace 50% of dansyl-polymyxin B from LPS; Tables 1, 4, 7
Description: In order to determine whether ring size affects the interaction between the peptide and bacterial membranes, we studied the interaction between the GS ring analogs and bacterial lipopolysaccharide (LPS). It has been shown previously that dansyl-polymixin (DPX) is a good probe for cationic binding sites on both purified LPS as well as whole bacterial cells (Example 8; Moore, et al., 1986; Sawyer, et al., 1988; Hancock, 1981). […] The LPS binding activity of various GS analogs was investigated, as discussed above.
Dansyl-polymixin (DPX) displacement from P. aeruginosa LPS was measured as described (Moore, et al., 1986). Briefly, peptides were titrated into cuvettes containing 3 μg of LPS per mL and 2.5 μM dansyl-polymixin (approximately 90% saturation of LPS binding sites) in 1 mL of 5 mM sodium HEPES buffer, pH 7.0, and the decrease in fluorescence recorded. A plot of the inverse of the percent inhibition as a function of the inverse of inhibitor concentration gave a value for I50, the inhibitor concentration resulting in 50% displacement of dansyl-polymixin from LPS (−1/× intercept).

E. coli UB1005 = assay type: cell-based, Escherichia coli; conditions: UB1005
Description: as §1, §2

S. typhinurium C610 = assay type: cell-based, Salmonella typhinurium
Description: as §1, §2

S. typhinurium C587 = assay type: cell-based, Salmonella typhinurium
Description: as §1, §2

E. coli DC2 = assay type: cell-based, Escherichia coli; conditions: DC2
Description: as §1, §3, §4

C. Albicans = assay type: cell-based, Candida albicans
Description: as §1, §2

Compound	Minimum Inhibitory Concentration (activity) (C. xeroses)	Minimum Inhibitory Concentration (activity) (S. epidermidis)	Minimum Inhibitory Concentration (activity) (B. subtilis)	Minimum Inhibitory Concentration (activity) (E. faecalis)	Minimum Inhibitory Concentration (activity) (P. aeruginosa H187)	Minimum Inhibitory Concentration (activity) (S. aureus SAP0017)	Minimum Inhibitory Concentration (activity) (S. aureus K147)	pIC50 [1]	Minimum Inhibitory Concentration (activity) (E. coli UB1005)	Minimum Inhibitory Concentration (activity) (S. typhinurium C610)	Minimum Inhibitory Concentration (activity) (S. typhinurium C587)	Minimum Inhibitory Concentration (activity) (E. coli DC2)	Minimum Inhibitory Concentration (activity) (C. Albicans)
CC(C)C[C@@H]1NC(=O)[C@@H](CCCCN)NC(=O)[C@H](C(C)C)NC(=O)[C@@H](CCCCN)NC(=O)[C@H](CC(C)C)NC(=O)[C@@H]2CCCN2C(=O)[C@@H](Cc2ccc(O)cc2)NC(=O)[C@H](C(C)C)NC(=O)[C@@H](CCCCN)NC(=O)[C@H](CC(C)C)NC(=O)[C@@H](CCCCN)NC(=O)[C@H](C(C)C)NC(=O)[C@@H]2CCCN2C(=O)[C@@H](Cc2ccc(O)cc2)NC1=O [GS14K2K4K9K11]	25 µg/mL	>200 µg/mL	>200 µg/mL	>200 µg/mL	>200 µg/mL	>200 µg/mL	>200 µg/mL	3.70	100 µg/mL	25 µg/mL	>200 µg/mL	50 µg/mL	>200 µg/mL
CC(C)C[C@@H]1NC(=O)[C@H](CCCCN)NC(=O)[C@H](C(C)C)NC(=O)[C@H](CCCCN)NC(=O)[C@H](CC(C)C)NC(=O)[C@@H]2CCCN2C(=O)[C@@H](Cc2ccc(O)cc2)NC(=O)[C@H](C(C)C)NC(=O)[C@@H](CCCCN)NC(=O)[C@H](CC(C)C)NC(=O)[C@@H](CCCCN)NC(=O)[C@H](C(C)C)NC(=O)[C@@H]2CCCN2C(=O)[C@@H](Cc2ccc(O)cc2)NC1=O [GS14K2K4]	9 µg/mL	100 µg/mL	>200 µg/mL	>200 µg/mL	150 µg/mL	>200 µg/mL	>200 µg/mL	3.92	50 µg/mL	25 µg/mL	200 µg/mL	6.2 µg/mL	200 µg/mL
CC(C)C[C@@H]1NC(=O)[C@H](CCCCN)NC(=O)[C@H](C(C)C)NC(=O)[C@@H]2CCCN2C(=O)[C@@H](Cc2ccc(O)cc2)NC(=O)[C@@H](CC(C)C)NC(=O)[C@H](CCCCN)NC(=O)[C@H](C(C)C)NC(=O)[C@H](CCCCN)NC(=O)[C@H](CC(C)C)NC(=O)[C@@H]2CCCN2C(=O)[C@@H](Cc2ccc(O)cc2)NC(=O)[C@H](C(C)C)NC(=O)[C@H](CCCCN)NC1=O [GS14L12]	3.1 µg/mL	3.1 µg/mL	200 µg/mL	0.8 µg/mL	200 µg/mL	50 µg/mL	100 µg/mL	4.49	17 µg/mL	50 µg/mL	150 µg/mL	3.1 µg/mL	9 µg/mL

Reference: US6358921B1, “Antimicrobial peptide compositions and method” (priority 1996, dated 2002)
